Measured values from US4191780A, “Bromhexine derivatives and process for making same” (priority 1978, dated 1980).
Entries after “also recorded” stand apart in the source; their conditions may differ.

How the values were obtained:
[1] = test system: blood pressure and heart rate; assay: Action on blood pressure and heart rate in the anesthetized rat; type: in vivo; conditions: intraperitoneal
Protocol: After intraperitoneal administration of increasing doses of IFT 1026, blood pressure, heart rate and the amplitude of heart contractions are unchanged. The effect of IFT 1026 at the dose of 450 mg/kg on blood pressure in the anesthesized rat is exemplified by the graph in FIG. No. 1.
FIG. 1--Arterial pressure recorded in the anaesthetized rat before and after IFT 1026 administration.

[2] = Long-term toxicity in rats: urine analysis; type: in vivo
Protocol: Urine analysis is carried out on 6 animals per group (3 males and 3 females) before as well as 30 and 60 days after treatment. Control group and the animals receiving 250 mg/kg Bromhexine and 350 mg/kg IFT 1026 respectively are observed.
The amount, aspect, colour, pH value, albumin, glucose, bilirubin levels and ketone bodies are recorded using also Ames reactive stripes.

[3] = test system: amphetamine-induced stereotypies; assay: Action on the amphetamine-induced stereotypies and toxicity on mice; conditions: 500 mg/kg/10 ml p.o., 60 min before dl-amphetamine 16 mg/kg/ml i.p.
Protocol: Stereotypies and death are caused 60 min. after treatment with IFT 1026 (500 mg/kg/10 ml p.o.) by injecting dl-amphetamine (16 mg/kg/ml i.p.) to groups of 10 male albino Swiss mice per cage.

[4] = Acute toxicity in rats treated orally; type: in vivo; conditions: oral
[5] = test system: Cough elicited by 15% citric acid spray; assay: Antitussive effect in Guinea-pigs and mice (overall); type: in vivo; conditions: mice (oral) and Guinea-pigs (i.p.)
Protocol: (6) Antitussive effect in Guinea-pigs and mice
The effect was tested 1 hour after oral administration and 30 min. after intraperitoneal application of the antitussive agents on mice and Guinea-pigs respectively.

[6] = test system: bronchial secretion; conditions: animal experiments; Engelhorn 1966, Merker 1966, Boyd 1966; cited from earlier work
[7] = test system: various types of cough; conditions: animal experiments; Engelhorn 1966, Merker 1966, Boyd 1966; cited from earlier work

| SMILES | amplitude of heart contractions ([1]; increasing doses) | heart rate ([1]; increasing doses) | blood pressure ([1]; rat, increasing doses (450 mg/kg in FIG. 1)) | urine amount, aspect, colour, pH, albumin, glucose, bilirubin, ketone bodies ([2]; 250 mg/kg Bromhexine, 350 mg/kg IFT 1026, 30 and 60 days) | impairment in the kidney ([2]; 350 mg/kg IFT 1026) | amphetamine-induced death [3] | amphetamine-induced stereotypies [3] | behaviour / clinical signs ([4]; high doses (up to 3000 mg/kg)) | lethal cases ([4]; increasing doses up to 3000 mg/kg, up to the seventh day after treatment) | antitussive effect compared in terms of the parent compound (Bromhexine) [5] | antitussive effect compared with Bromhexine [5] | stimulation of bronchial secretion [6] | effects on various types of cough [7] |
| --- | --- | --- | --- | --- | --- | --- | --- | --- | --- | --- | --- | --- | --- |
| COc1ccccc1OCC(=O)Nc1c(Br)cc(Br)cc1CN(C)C1CCCCC1 [IFT 1026, N-(2-guaiacol-glycolyl-amino-3,5-dibromobenzyl)N-cyclohexylmethylamine] | unchanged | unchanged | unchanged | no changes occur in said parameters | no impairment in the kidney | not changed | not changed | slight depression in behaviour, occasional tremor and stiffness | no lethal cases | the same when compared in terms of the parent compound | slightly weaker than Bromhexine; also recorded: approximately the same as that of Bromhexine | – | – |
| CN(Cc1cc(Br)cc(Br)c1N)C1CCCCC1 [Bromhexine, N-cyclohexyl-N-methyl-2-(2-amino-3,5-dibromo)benzylammonium chloride] | – | – | – | – | – | – | – | – | – | – | – | marked stimulation | depressing effects |
